According to ChEMBL document CHEMBL5050861 (2021):
Converted amounts (≈) assume the structure as drawn.

Columns and labels:
[1] = organism: Homo sapiens; test: Inhibition of human GALK1 K252A/E253A double mutant relative to control; parameters: concentration or dose not given beside the values; conditions: concentration not given here
[2] = Inhibition of recombinant mouse GALK1 using ATP as substrate incubated for 1 hr and measured by Kinase-Glo assay
[3] = Permeability of compound by PAMPA assay; format: ADME; conditions: read-out: permeability
[4] = Inhibition of human GALK1 K252A/E253A double mutant
[5] = Stability of compound in rat microsomes assessed as half-life; format: ADME, Microsome
[6] = Kinetic aqueous solubility of the compound; format: physicochemical; conditions: buffer; read-out: Kinetic_solubility

| Compound | inhibition [1] [%] | IC50 ([2]; read-out: IC50) [µM] | Papp [3] [×10⁻⁶ cm/s] | IC50 ([4]; read-out: IC50) [µM] | half-life [5] [min] | solubility kinetic [6] [µg/mL] | IC50 [2] | IC50 [4] |
| --- | --- | --- | --- | --- | --- | --- | --- | --- |
| CC1=C(C(=O)Nc2cc(C(=O)O)ccn2)C(c2ccccc2Cl)N=C(Nc2nc3ccc(C)cc3o2)N1 (centres undefined) | 100 | 17.2 | < 1 | 6.9 | > 30 | 34.4 (≈ 66.6 µM) | – | – |
| CC1=C(C(=O)Nc2cc(C(=O)O)ccn2)C(c2ccccc2Cl)N=C(Nc2nc3cccc(F)c3o2)N1 (centres undefined) | 100 | 8.63 | < 1 | 1 | > 30 | > 77 | – | – |
| CC1=C(C(=O)Nc2cc(C(=O)O)ccn2)C(c2cccc(Cl)c2Cl)N=C(Nc2nc3ccc(F)cc3o2)N1 (centres undefined) | 100 | 21.7 | < 10 | 3.6 | > 30 | 55.5 (≈ 99.9 µM) | – | – |
| CC1=C(C(=O)Nc2cc(C(=O)O)ccn2)C(c2ccccc2Cl)N=C(Nc2nc3cc(N)ccc3o2)N1 (centres undefined) | 100 | 21.7 | 10 | 5.5 | > 30 | > 76 | – | – |
| COc1ccc2oc(NC3=NC(c4ccccc4Cl)C(C(=O)Nc4cc(C(=O)O)ccn4)=C(C)N3)nc2c1 (centres undefined) | 100 | 12.2 | < 1 | 2 | > 30 | > 79 | – | – |
| COc1cccc2nc(NC3=NC(c4ccccc4Cl)C(C(=O)Nc4cc(C(=O)O)ccn4)=C(C)N3)oc12 (centres undefined) | 80 | – | < 1 | > 15 | > 30 | 65.7 (≈ 123 µM) | Not Active | – |
| CC1=C(C(=O)Nc2cc(C(=O)O)ccn2)C(c2ccc(F)cc2Cl)N=C(Nc2nc3ccc(F)cc3o2)N1 (centres undefined) | 100 | 4.32 | < 1 | 0.258 | > 30 | 40.6 (≈ 75.3 µM) | – | – |
| CC1=C(C(=O)Nc2cc(C(=O)O)ccn2)C(c2cccc(F)c2Cl)N=C(Nc2nc3ccc(F)cc3o2)N1 (centres undefined) | 100 | 15.3 | < 10 | 1.8 | < 10 | < 10000 | – | – |
| CC1=C(C(=O)Nc2cc(C(=O)O)ccn2)C(c2cccc(C(N)=O)c2)N=C(Nc2nc3ccc(F)cc3o2)N1 (centres undefined) | 90 | 21.7 | < 1 | 3.8 | > 30 | > 78 | – | – |
| CC1=C(C(=O)Nc2cc(C(=O)O)ccn2)C(c2ccccc2Cl)N=C(Nc2nc3cc(F)ccc3o2)N1 (centres undefined) | 100 | 17.2 | < 10 | 3.6 | < 10 | < 10000 | – | – |
| CC1=C(C(=O)Nc2cc(C(=O)O)ccn2)C(c2cccc(S(N)(=O)=O)c2)N=C(Nc2nc3ccc(F)cc3o2)N1 (centres undefined) | 75 | 38.5 | < 10 | > 15 | > 30 | > 84 | – | – |
| CC1=C(C(=O)Nc2cc(C(=O)O)ccn2)C(c2cccc(C(F)(F)F)c2)N=C(Nc2nc3ccc(F)cc3o2)N1 (centres undefined) | 90 | – | < 1 | > 15 | > 30 | 60.1 (≈ 108 µM) | Not Active | – |
| CC1=C(C(=O)Nc2cc(C(=O)O)ccn2)C(c2ccccc2Br)N=C(Nc2nc3ccc(F)cc3o2)N1 (centres undefined) | 100 | 3.85 | < 10 | 0.235 | > 30 | 36 (≈ 63.7 µM) | – | – |
| CC1=C(C(=O)Nc2cccc(C(=O)O)c2)C(c2ccccc2Cl)N=C(Nc2nc3ccccc3o2)N1 (centres undefined) | 96 | 6.11 | < 1 | 3.1 | > 30 | 59.1 (≈ 118 µM) | – | – |
| CC1=C(C(=O)Nc2cc(C(=O)O)ccn2)C(c2ccccc2Cl)N=C(Nc2nc3c(Cl)cccc3o2)N1 (centres undefined) | 85 | 13.7 | < 1.3 | 5.8 | > 30 | < 1 | – | – |
| CC1=C(C(=O)Nc2cc(C(=O)O)ccn2)C(c2ccccc2Cl)N=C(Nc2nc3cc(Cl)ccc3o2)N1 (centres undefined) | 100 | 6.11 | < 1 | 1.7 | > 30 | 35.2 (≈ 65.5 µM) | – | – |
| COc1cccc(C2N=C(Nc3nc4ccc(F)cc4o3)NC(C)=C2C(=O)Nc2cc(C(=O)O)ccn2)c1Cl (centres undefined) | 100 | 19.3 | < 1 | 5.4 | > 30 | > 81 | – | – |
| CC1=C(C(=O)Nc2cc(C(=O)O)ccn2)C(c2ccccc2Cl)N=C(Nc2nc3cccc(Cl)c3o2)N1 (centres undefined) | 100 | 9.68 | < 1 | 1 | > 30 | 57.5 (≈ 107 µM) | – | – |
| CC1=C(C(=O)Nc2cc(C(=O)O)ccn2)C(c2ccccc2Cl)N=C(Nc2nc3cccc(C(F)(F)F)c3o2)N1 (centres undefined) | 100 | 48.5 | < 1 | > 15 | > 30 | 61.1 (≈ 107 µM) | – | – |
| CC1=C(C(=O)Nc2cc(C(=O)O)ccn2)C(c2ccccc2Cl)N=C(Nc2nc3ccc(Cl)cc3o2)N1 (centres undefined) | 100 | 6.11 | < 10 | 2.25 | > 30 | 6.3 (≈ 11.7 µM) | – | – |
| CC1=C(C(=O)NCc2nc3ccccc3n2C)C(c2ccccc2Cl)N=C(Nc2nc3ccccc3o2)N1 (centres undefined) | 48 | 13.7 | < 10 | – | 4.52 | < 1 | – | Not Active |
| CC1=C(C(=O)Nc2cc(C(=O)O)ccn2)C(c2ccc(Cl)cc2Cl)N=C(Nc2nc3ccc(F)cc3o2)N1 (centres undefined) | 85 | 3.85 | < 1 | 0.345 | > 30 | < 1 | – | – |
| CC1=C(C(=O)Nc2cc(C(=O)O)ccn2)C(c2ccccc2Cl)N=C(Nc2nc3cc(C)ccc3o2)N1 (centres undefined) | 100 | 3.06 | < 1 | 0.611 | > 30 | < 1 | – | – |
| CC1=C(C(=O)NCc2nccn2C)C(c2ccccc2Cl)N=C(Nc2nc3ccccc3o2)N1 (centres undefined) | 94 | 13.7 | > 1110 | 11 | 6.42 | 23 (≈ 48.3 µM) | – | – |
| CC1=C(C(=O)Nc2cc(C(=O)O)ccn2)C(c2ccccc2Cl)N=C(Nc2nc3cccc(C)c3o2)N1 (centres undefined) | 100 | 6.85 | < 10 | 0.365 | > 30 | > 76 | – | – |
| CC1=C(C(=O)Nc2cc(C(=O)O)ccn2)C(c2ccccc2Cl)N=C(Nc2nc3c(F)cccc3o2)N1 (centres undefined) | 94 | 21.7 | > 100 | 3.1 | > 30 | < 10000 | – | – |
| CC1=C(C(=O)Nc2ccccc2)C(c2ccccc2Cl)N=C(Nc2nc3ccccc3o2)N1 (centres undefined) | 57 | 13.7 | < 10 | 0.97 | 24 | < 1 | – | – |
| COc1ccc(C2N=C(Nc3nc4ccc(F)cc4o3)NC(C)=C2C(=O)Nc2cc(C(=O)O)ccn2)c(Cl)c1 (centres undefined) | 100 | 3.06 | < 10 | 0.3 | > 30 | 8.3 (≈ 15.1 µM) | – | – |
| CC1=C(C(=O)Nc2cc(C(=O)O)ccn2)C(c2ccccc2Cl)N=C(Nc2nc3c(C)cccc3o2)N1 (centres undefined) | 100 | 17.2 | < 1.3 | 5.5 | > 30 | 3.5 (≈ 6.77 µM) | – | – |
